ChEMBL document CHEMBL1128826, “Heteroatom effect in the PKC inhibitory activities of perhydroazepine analogs of balanol” (Bioorg Med Chem Lett, 1995)

Legend:
[1] = molecular target: T1, Protein kinase C beta type (Homo sapiens, UniProt P05771); assay: Inhibition of human Protein kinase C beta 1
[2] = molecular target: Protein kinase C delta type (Homo sapiens, UniProt Q05655); assay: Inhibition of human Protein kinase C delta
[3] = molecular target: Protein kinase C gamma type (Homo sapiens, UniProt P05129); assay: Inhibition of human Protein kinase C gamma
[4] = molecular target: T1, Protein kinase C beta type; assay: Inhibition of human Protein kinase C beta 2
[5] = molecular target: Protein kinase C alpha type (Homo sapiens, UniProt P17252); assay: Inhibition of human Protein kinase C alpha
[6] = molecular target: Protein kinase C eta type (Homo sapiens, UniProt P24723); assay: Inhibition of human protein kinase C eta
[7] = molecular target: T2, Protein kinase C zeta type (Homo sapiens, UniProt Q05513); assay: Inhibition of Protein kinase C zeta
T2 sequence (Q05513 whole entry): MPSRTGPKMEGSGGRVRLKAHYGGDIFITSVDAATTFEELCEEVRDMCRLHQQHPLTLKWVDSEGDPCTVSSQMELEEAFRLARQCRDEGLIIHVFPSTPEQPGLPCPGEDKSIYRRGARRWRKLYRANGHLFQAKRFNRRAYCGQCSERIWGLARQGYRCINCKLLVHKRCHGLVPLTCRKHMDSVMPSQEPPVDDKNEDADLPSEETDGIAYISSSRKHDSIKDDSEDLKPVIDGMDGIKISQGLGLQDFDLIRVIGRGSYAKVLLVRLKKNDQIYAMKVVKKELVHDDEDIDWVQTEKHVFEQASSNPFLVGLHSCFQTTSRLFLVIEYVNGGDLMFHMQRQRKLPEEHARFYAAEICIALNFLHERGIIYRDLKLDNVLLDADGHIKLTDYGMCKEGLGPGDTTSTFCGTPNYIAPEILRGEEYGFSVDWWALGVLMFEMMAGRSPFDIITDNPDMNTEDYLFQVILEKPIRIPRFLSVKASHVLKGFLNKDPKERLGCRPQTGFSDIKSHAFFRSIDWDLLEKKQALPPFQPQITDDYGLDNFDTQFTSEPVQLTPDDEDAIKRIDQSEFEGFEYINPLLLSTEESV

[8] = molecular target: T3, Protein kinase C epsilon type (Homo sapiens, UniProt Q02156); assay: Inhibition of human Protein kinase C epsilon
T3 sequence (Q02156 whole entry): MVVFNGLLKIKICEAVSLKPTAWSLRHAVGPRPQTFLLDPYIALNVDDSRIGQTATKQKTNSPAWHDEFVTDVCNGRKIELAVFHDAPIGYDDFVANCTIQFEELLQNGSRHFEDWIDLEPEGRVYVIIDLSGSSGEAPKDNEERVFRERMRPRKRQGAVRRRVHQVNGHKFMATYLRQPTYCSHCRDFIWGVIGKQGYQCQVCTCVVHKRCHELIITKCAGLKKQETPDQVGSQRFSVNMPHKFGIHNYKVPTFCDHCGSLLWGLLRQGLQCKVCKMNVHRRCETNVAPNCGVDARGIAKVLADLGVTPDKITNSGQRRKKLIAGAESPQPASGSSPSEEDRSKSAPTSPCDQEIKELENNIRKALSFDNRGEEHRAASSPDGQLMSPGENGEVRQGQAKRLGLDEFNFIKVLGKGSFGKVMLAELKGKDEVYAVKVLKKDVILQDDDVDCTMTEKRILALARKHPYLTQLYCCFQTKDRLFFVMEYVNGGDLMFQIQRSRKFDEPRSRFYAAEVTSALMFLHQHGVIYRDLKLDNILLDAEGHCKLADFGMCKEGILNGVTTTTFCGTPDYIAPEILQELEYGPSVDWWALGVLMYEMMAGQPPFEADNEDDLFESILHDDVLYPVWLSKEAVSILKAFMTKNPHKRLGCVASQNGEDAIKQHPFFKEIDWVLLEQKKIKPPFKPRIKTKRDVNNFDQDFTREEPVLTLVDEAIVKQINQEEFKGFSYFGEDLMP

Chain of Protein kinase C eta type (P24723 whole entry): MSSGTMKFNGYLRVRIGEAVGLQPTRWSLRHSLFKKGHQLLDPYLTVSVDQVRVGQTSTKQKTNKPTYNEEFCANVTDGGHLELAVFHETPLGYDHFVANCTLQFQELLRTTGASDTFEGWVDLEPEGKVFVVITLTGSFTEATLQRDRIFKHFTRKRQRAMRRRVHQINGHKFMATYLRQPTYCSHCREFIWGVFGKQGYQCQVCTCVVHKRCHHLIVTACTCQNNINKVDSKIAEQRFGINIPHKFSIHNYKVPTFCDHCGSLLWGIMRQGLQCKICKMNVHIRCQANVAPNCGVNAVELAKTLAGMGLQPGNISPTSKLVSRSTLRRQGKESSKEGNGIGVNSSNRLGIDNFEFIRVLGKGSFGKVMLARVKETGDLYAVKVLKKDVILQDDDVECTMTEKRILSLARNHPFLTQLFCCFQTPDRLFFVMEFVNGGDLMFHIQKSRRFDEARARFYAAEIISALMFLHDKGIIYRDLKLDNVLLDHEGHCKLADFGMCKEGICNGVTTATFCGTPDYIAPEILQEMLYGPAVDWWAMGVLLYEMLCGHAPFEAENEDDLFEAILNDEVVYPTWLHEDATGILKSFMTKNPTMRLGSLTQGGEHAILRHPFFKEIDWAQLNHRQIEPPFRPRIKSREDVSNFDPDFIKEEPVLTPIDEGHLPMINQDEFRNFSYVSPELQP
Chain of Protein kinase C delta type (Q05655 whole entry): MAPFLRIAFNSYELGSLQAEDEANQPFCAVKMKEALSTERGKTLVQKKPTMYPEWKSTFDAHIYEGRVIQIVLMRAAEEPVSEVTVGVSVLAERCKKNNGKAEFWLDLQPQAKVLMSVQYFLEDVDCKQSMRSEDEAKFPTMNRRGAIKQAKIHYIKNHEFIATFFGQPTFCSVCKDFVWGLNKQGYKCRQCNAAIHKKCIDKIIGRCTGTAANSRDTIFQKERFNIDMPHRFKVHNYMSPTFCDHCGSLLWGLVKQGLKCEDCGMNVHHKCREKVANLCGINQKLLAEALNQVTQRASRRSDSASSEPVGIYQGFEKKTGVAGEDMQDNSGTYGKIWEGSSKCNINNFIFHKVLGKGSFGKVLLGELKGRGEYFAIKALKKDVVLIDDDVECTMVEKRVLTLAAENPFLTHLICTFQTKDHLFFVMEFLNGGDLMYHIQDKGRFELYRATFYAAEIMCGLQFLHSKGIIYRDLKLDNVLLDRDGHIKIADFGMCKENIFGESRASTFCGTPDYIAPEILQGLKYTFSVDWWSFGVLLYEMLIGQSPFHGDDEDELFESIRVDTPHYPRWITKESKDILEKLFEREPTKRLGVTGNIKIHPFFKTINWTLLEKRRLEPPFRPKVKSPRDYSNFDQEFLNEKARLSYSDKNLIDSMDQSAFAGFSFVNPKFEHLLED
T1 sequence (P05771 whole entry): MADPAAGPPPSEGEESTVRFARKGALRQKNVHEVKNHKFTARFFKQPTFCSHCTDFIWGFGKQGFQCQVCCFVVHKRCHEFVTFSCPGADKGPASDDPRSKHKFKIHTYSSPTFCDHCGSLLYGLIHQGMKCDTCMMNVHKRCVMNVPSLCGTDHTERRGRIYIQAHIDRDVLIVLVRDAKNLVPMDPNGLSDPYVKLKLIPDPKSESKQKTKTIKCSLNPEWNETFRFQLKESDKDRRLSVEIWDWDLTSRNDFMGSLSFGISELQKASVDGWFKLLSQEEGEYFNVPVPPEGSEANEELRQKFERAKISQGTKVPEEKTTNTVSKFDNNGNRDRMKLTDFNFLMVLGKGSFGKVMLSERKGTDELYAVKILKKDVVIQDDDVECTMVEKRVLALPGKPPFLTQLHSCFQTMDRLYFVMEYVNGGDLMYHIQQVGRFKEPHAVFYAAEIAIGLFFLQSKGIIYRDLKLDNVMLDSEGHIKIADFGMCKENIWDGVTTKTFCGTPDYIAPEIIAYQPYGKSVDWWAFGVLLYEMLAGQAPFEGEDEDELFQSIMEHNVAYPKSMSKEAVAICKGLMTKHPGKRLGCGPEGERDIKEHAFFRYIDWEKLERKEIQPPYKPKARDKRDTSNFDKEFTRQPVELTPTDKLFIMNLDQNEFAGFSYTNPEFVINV

| Structure (SMILES) | IC50 [1] | IC50 [2] | IC50 [3] | IC50 [4] | IC50 [5] | IC50 [6] | IC50 [7] | IC50 [8] |
| --- | --- | --- | --- | --- | --- | --- | --- | --- |
| O=C(N[C@H]1CNCCC[C@H]1OC(=O)c1cc(O)c(C(=O)c2c(O)cccc2C(=O)O)c(O)c1)c1ccc(O)cc1 (racemic) | 32 nM | 32 nM | 34 nM | 44 nM | 74 nM | 22 nM | 3500 nM | – |
| O=C(N[C@H]1COCCC[C@H]1OC(=O)c1cc(O)c(C(=O)c2c(O)cccc2C(=O)O)c(O)c1)c1ccc(O)cc1 | 2500 nM | 90 nM | 1000 nM | 3300 nM | 6700 nM | 10 nM | > 150000 nM | 16000 nM |
| O=C(N[C@H]1CCCCC[C@H]1OC(=O)c1cc(O)c(C(=O)c2c(O)cccc2C(=O)O)c(O)c1)c1ccc(O)cc1 | 220 nM | 90 nM | 60 nM | 430 nM | 270 nM | 60 nM | > 150000 nM | 280 nM |
| O=C(N[C@H]1CSCCC[C@H]1OC(=O)c1cc(O)c(C(=O)c2c(O)cccc2C(=O)O)c(O)c1)c1ccc(O)cc1 | 3800 nM | 90 nM | 1000 nM | 2400 nM | 3300 nM | 100 nM | – | 5900 nM |
| O=C(N[C@H]1CS(=O)(=O)CCC[C@H]1OC(=O)c1cc(O)c(C(=O)c2c(O)cccc2C(=O)O)c(O)c1)c1ccc(O)cc1 | 5200 nM | 4000 nM | 4300 nM | 3600 nM | 9600 nM | 830 nM | > 150000 nM | 45000 nM |
